Source: patent US11149248B2, “Bioreactor system” (KIYATEC INC., priority 2013, dated 2021)

Assays:
[1] = test system: Human mammary epithelial cells (hMEC); test: PrestoBlue cell viability analysis in 2D, 3D static and 3D perfusion culture; assay type: cell-based; details: hMEC cultured over 7 days with increasing concentrations of cisplatin, 3D static, 3D perfusion (FIG. 16)
Procedure: (§1) The experiment was performed in a single chamber culture system (one chamber of a 3DKUBE in an “independent chamber” configuration) or using wells in a 12-well plate. […] The inlet port was connected to an opening in a first side of the 3DKUBE cell module and the outlet port connected to an opening in a second side of the cell module. The chamber featured an imaging widow enabling non-lytic analysis inside the chamber through various spectrophotometric and other techniques.
(§2) Human mammary epithelial cells (hMEC) were utilized. For 2D experiments hMEC were cultured on the bottom of 12-well plates as per typical cell culture practices (referred to as “2D” experiments). For 3D static and perfusion experiments hMEC were suspended in a Matrigel™:Collagen (rat tail collagen Type I) mixture which was added to silk fibroin scaffolds (H 2.5 mm×W 5 mm) contained in 12-well plates (referred to as “3D static”) or 3DKUBEs (referred to as “3D perfusion”). […]
(§3) The secretion of lactate dehydrogenase (LDH) is a non-lytic assay of cytotoxicity. […] The cells were cultured in these 2D, 3D static, or 3D perfusion configurations over 7 days in media alone or in media with increasing concentrations of cisplatin (a DNA alkylating agent used in chemotherapy) and analyzed via PrestoBlue or LDH release (examples of non-lytic means of assessing cell viability or cytotoxicity). […]

[2] = test system: Human mammary epithelial cells (hMEC); test: LDH release cytotoxicity assay in 2D, 3D static and 3D perfusion culture; assay type: cell-based; details: 2% triton 2 hours prior to analysis, positive control
Procedure: as §1, §2, §3

Compound	cell viability (PrestoBlue analysis) [1]	maximal cell lysis (LDH release) ([2]; 2D and 3D static (12-well plates))	increase of LDH release ([2]; 3D perfusion (3DKUBE))
N.N.[Cl][Pt][Cl] [cisplatin]	decrease in cell viability that is only statistically significant in 3D static and 3D perfusion	–	–
triton	–	reduced maximal cell lysis	approximately 2.5 fold
